Tests used:
[1] = test system: PyMT syngeneic breast cancer implant mouse model; experiment: PyMT syngeneic breast cancer model primary tumor TIE2 cell accumulation (TIE2 staining); assay type: in vivo; details: Compound 1 oral twice daily, paclitaxel IV every five days, 21 days
Method: (§4) Briefly, 1×10^6 cells (dissociated from PyMT tumor fragments) in 0.1 mL total volume were implanted into the fourth mammary fat pad on the left side of female mice (FVB/NJ, JAXWEST:RB05 mice from Jackson Labs). A total of 10 mice were implanted in each group. […] Animals were dosed for 21 days. Body weights and tumor measurements were recorded three times weekly.
At the end of study, tumors were excised and placed in formalin. Formalin-fixed tumor samples were then placed in paraffin blocks. The experimental formalin fixed-paraffin embedded tissue slides were deparaffinized with xylene and hydrated to distilled water through a graduated series of alcohol rinses. Antigenic retrieval was performed using Dako's PT Link Module with a Citrate pH 6 buffer target retrieval solution at 95° C. for 20 minutes. Once the slides cooled down, they were loaded onto a Dako AutostainerPlusLink for immunohistochemical staining at room temperature with both TIE2 and CD31 antibodies. Endogenous peroxidase and alkaline phosphatase activity in the tissues was quenched with a Dual Endogenous Enzyme Block solution (Dako, S2003) for 5 minutes. Non-specific protein binding was blocked with serum free Protein Block (Dako, X0909) for 5 minutes. […] Slides were scored for TIE2 staining using a scale of 0, no visible staining; 1, weak staining; 2, moderate staining; 3 strong staining.

[2] = test system: PyMT syngeneic breast cancer implant mouse model; experiment: PyMT syngeneic breast cancer model primary tumor macrophage accumulation (F4/80 staining); assay type: in vivo; details: Compound 1 oral twice daily, paclitaxel IV every five days, 21 days
Method: PyMT Syngeneic Breast Cancer Model Primary Tumor Macrophage Accumulation
as §4
At the end of study, tumors were excised and placed in formalin. Formalin-fixed tumor samples were then placed in paraffin blocks. Formalin fixed-paraffin embedded tissue slides were deparaffinized with xylene and hydrated to distilled water through a graduated series of alcohol rinses. Antigenic retrieval was performed using Dako's PT Link Module with a Tris/EDTA buffer target retrieval solution at 95° C. for 20 minutes. Once the slides cooled down, they were loaded onto a Dako AutostainerPlusLink for immunohistochemical staining at room temperature with F4/80 and CD31 antibodies, to stain for macrophages and endothelial cells, respectively. Endogenous peroxidase and alkaline phosphatase activity in the tissues was quenched with a Dual Endogenous Enzyme Block solution (Dako, S2003) for 5 minutes. […] Slides were scored for F4/80 staining using a scale of 0, no visible staining; 1, weak staining; 2, moderate staining; 3 strong staining.

[3] = test system: HMVEC capillary tube formation; experiment: HMVEC capillary tube formation assay; assay type: cell-based; details: Homo sapiens, ANG1-stimulated, 18 hours, read-out: IC50 value for inhibition of ANG1-stimulated HMVEC capillary tube formation
Method: HMVEC (Human microvascular endothelial cells; Catalog #PCS-110-010) cells were obtained from the American Type Culture Collection (ATCC, Manassas, Va.). Briefly, cells were grown in EGM-2 MV (Lonza, Walkersville, Md.) at 37 degrees Celsius, 5% CO2, and 95% humidity. Cells were allowed to expand until reaching 90-95% saturation at which point they were subcultured or harvested for assay use.
HMVEC Capillary Tube Formation Assay
HMVEC cells (1.5×10^4 cells/well) mixed with test composition or DMSO control and the appropriate growth factor (ANG1 or ANG2) or control were added to a 96-well tissue-culture treated plate coated with growth-factor reduced Matrigel in 0.1 mL of EBM-2 basal medium (Lonza, Walkersville, Md.). Cells were then incubated for 18 hours at 37 degrees Celsius, 5% CO2, and 95% humidity. Media was then gently aspirated and wells were gently washed with 0.1 mL EBM-2 basal medium. Media was again aspirated and 1 μM Calcein AM solution (Invitrogen, Carlsbad, Calif.) in basal medium was added to each well to fluorescently label live cells. Cells were then incubated for 30 minutes at 37 degrees Celsius, 5% CO2, and 95% humidity. Media was aspirated and wells were gently washed with phosphate-buffered saline twice. […] Data was analyzed using Prism software (GraphPad Software, San Diego, Calif.) to calculate IC50 values.

[4] = test system: PyMT syngeneic breast cancer implant mouse model; experiment: PyMT syngeneic breast cancer model primary tumor growth; assay type: in vivo; details: Compound 1 oral twice daily, paclitaxel IV every five days, 21 days
Method: PyMT Syngeneic Breast Cancer Model Primary Tumor Growth
Briefly, 1×10^6 cells (dissociated from PyMT tumor fragments) in 0.1 mL total volume were implanted into the fourth mammary fat pad on the left side of female mice (FVB/NJ, JAXWEST:RB05 mice from Jackson Labs). A total of 10 mice were implanted in each group. Molecular Imaging, Inc.'s Animal Care and Use Committee approved all the experimental protocols and conducted experiments in compliance with all the laws, regulations and guidelines of the National Institutes of Health (NIH). […] Animals were dosed for 21 days. Body weights and tumor measurements were recorded three times weekly. Tumor burden (mg) was estimated from caliper measurements by the formula for the volume of a prolate ellipsoid assuming unit density as: Tumor burden (mg)=(L×W^2)/2, where L and W are the respective orthogonal tumor length and width measurements (mm).

TIE2 = target: T1, TIE2 (Homo sapiens, UniProt Q02763); experiment: TIE2-transfected CHO K1 phospho-TIE2 Western blot composition washout assay; assay type: cell-based; details: incubated 2 hours at 0.1 μM-1 μM prior to being washed out
T1 construct: V5; expressed in transfected cells; host or cells: CHO-K1 (ATCC CCL-61), transient transfection with Lipofectamine LTX
Method: CHO-K1 cells (catalog #CCL-61) were obtained from the American Type Culture Collection (ATCC, Manassas, Va.). Briefly, cells were grown in F12K medium supplemented with 10% characterized fetal bovine serum (Invitrogen, Carlsbad, Calif.), 100 units/mL penicillin G, 100 μg/ml streptomycin, and 0.29 mg/mL L-glutamine (Invitrogen, Carlsbad, Calif.) at 37 degrees Celsius, 5% CO2, and 95% humidity. Cells were allowed to expand until reaching 70-95% confluence at which point they were subcultured or harvested for assay use.
TIE2-Transfected CHO K1 Phospho-TIE2 Western Blot Composition Washout Assay
CHO K1 cells (1×10^5 cells/well) were added to a 24-well tissue-culture treated plate in 1 mL of RPMI1640 medium supplemented with 10% characterized fetal bovine serum and 1× non-essential amino acids (Invitrogen, Carlsbad, Calif.). Cells were then incubated overnight at 37 degrees Celsius, 5% CO2, and 95% humidity. Medium was aspirated, and 0.5 mL of medium was added to each well. […] Fluorescence was detected using a Storm 840 phosphorimager (GE Healthcare, Piscataway, N.J.) in fluorescence mode. […] The 160 kDa phospho-TIE2 and total TIE2 bands were quantified using ImageQuant software (GE Healthcare, Piscataway, N.J.). […]

[5] = test system: PyMT syngeneic breast cancer implant mouse model; experiment: PyMT syngeneic breast cancer model survival evaluation; assay type: in vivo; details: Compound 1 oral once or twice weekly, eribulin at 0.1 mg/kg IV three times weekly; tumors resected three days after treatment began
Method: PyMT Syngeneic Breast Cancer Model Survival Evaluation
Briefly, 1×10^6 cells (dissociated from PyMT tumor fragments and stored frozen in cell-freezing medium) in 0.1 mL total volume were implanted into the fourth mammary fat pad on the left side of female mice (FVB/NJ, JAXWEST:RB05 mice from Jackson Labs). A total of ten mice were implanted in each group. Molecular Imaging, Inc.'s Animal Care and Use Committee approved all the experimental protocols and conducted experiments in compliance with all the laws, regulations and guidelines of the National Institutes of Health (NIH). […] Tumors were then resected three days after treatment began. Animals were then dosed for the duration of the survival experiment. Body weights and tumor measurements were recorded three times weekly.

[6] = test system: PyMT syngeneic breast cancer implant mouse model; experiment: PyMT syngeneic breast cancer model lung metastasis evaluation, Compound 1 dosed intermittently with eribulin; assay type: in vivo; details: Compound 1 oral twice weekly, eribulin IV three times weekly, 12 days
Method: (§1) PyMT Syngeneic Breast Cancer Model Lung Metastasis Evaluation
(§2) Briefly, 1×10^6 cells (dissociated from PyMT tumor fragments and stored frozen in cell-freezing medium) in 0.1 mL total volume were implanted into the fourth mammary fat pad on the left side of female mice (FVB/NJ, JAXWEST:RB05 mice from Jackson Labs). A total of three mice were implanted in each group. Molecular Imaging, Inc.'s Animal Care and Use Committee approved all the experimental protocols and conducted experiments in compliance with all the laws, regulations and guidelines of the National Institutes of Health (NIH). […] Animals were dosed for 12 days. Body weights and tumor measurements were recorded three times weekly.
(§3) At the end of study, lung tissues were excised and placed in formalin. Formalin-fixed lung samples were then placed in paraffin blocks. Each lung block had three slides with two levels per slide cut and stained with Hematoxylin and Eosin. Metastatic lung nodules were counted via microscopy.

[7] = test system: PyMT syngeneic breast cancer implant mouse model; experiment: PyMT syngeneic breast cancer model lung metastasis evaluation, Compound 1 dosed intermittently with paclitaxel; assay type: in vivo; details: Compound 1 oral twice weekly, paclitaxel IV every five days, 12 days
Method: as §1, §2, §3

T1 sequence (Q02763 23-1124): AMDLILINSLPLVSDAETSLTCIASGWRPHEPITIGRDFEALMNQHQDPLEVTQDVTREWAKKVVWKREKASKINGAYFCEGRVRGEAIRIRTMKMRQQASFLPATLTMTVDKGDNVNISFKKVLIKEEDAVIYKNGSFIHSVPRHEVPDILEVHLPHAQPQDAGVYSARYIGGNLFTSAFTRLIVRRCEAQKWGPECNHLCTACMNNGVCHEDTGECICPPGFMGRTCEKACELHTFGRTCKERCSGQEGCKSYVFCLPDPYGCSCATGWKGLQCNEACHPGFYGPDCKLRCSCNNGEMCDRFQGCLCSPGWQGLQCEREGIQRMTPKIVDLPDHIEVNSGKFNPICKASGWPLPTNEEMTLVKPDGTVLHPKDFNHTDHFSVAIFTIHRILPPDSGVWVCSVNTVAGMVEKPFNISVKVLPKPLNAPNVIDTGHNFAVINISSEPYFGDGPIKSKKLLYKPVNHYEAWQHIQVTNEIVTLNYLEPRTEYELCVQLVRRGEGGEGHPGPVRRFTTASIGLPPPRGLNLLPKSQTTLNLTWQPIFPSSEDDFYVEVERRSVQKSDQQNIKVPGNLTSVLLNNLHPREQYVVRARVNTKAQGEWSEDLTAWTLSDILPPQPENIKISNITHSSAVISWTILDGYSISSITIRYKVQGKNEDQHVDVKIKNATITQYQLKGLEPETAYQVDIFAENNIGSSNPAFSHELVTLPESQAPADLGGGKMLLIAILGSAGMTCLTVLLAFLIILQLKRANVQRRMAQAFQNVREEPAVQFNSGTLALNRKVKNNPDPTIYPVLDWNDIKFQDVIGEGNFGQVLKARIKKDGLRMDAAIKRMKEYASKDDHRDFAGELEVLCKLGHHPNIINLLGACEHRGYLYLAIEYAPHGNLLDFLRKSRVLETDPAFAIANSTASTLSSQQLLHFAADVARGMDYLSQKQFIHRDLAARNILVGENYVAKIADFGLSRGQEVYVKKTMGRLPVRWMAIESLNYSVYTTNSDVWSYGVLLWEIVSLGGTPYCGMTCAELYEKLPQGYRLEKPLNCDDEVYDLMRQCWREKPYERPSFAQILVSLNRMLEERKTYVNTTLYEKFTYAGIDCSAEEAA

Row | IC50 [3] | duration of >50% inhibition of phospho-TIE2 levels after washout (TIE2) | inhibition of phospho-TIE2 levels after washout (TIE2; maintained for >24 hours) | SMILES | TIE2-expressing cell accumulation at the primary tumor (TIE2 staining), FIG. 3 [1] | macrophage accumulation at the primary tumor (F4/80 staining), FIG. 2 [2] | primary tumor growth (tumor burden), FIG. 1 [4] | survival, FIG. 7 [5] | lung metastasis (metastatic lung nodules), FIG. 6 [6] | lung metastasis (metastatic lung nodules), FIG. 5 [7]
1 | 6.9 nM | > 24 h | > 50% | CNC(=O)c1cc(Oc2ccc(NC(=O)Nc3cc(C(C)(C)C)nn3-c3ccc4ncccc4c3)c(F)c2)ccn1.Cc1ccc(S(=O)(=O)O)cc1 [Compound 1, 1-(3-tert-butyl-1-(quinolin-6-yl)-1H-pyrazol-5-yl)-3-(2-fluoro-4-(2-(methylcarbamoyl)pyridin-4-yloxy)phenyl)urea para-toluene sulfonic acid salt] | decrease in TIE2-expressing cell accumulation | decrease in macrophage accumulation | tumor growth inhibition |  |  | 
2 |  |  |  | C=C1C[C@@H]2CC[C@@]34C[C@H]5O[C@H]6[C@@H](O3)[C@H]3O[C@H](CC[C@@H]3O[C@H]6[C@H]5O4)CC(=O)C[C@@H]3[C@@H](OC)[C@@H](C[C@H](O)CN)O[C@H]3C[C@H]3O[C@@H](CC[C@@H]1O2)C[C@@H](C)C3=C [eribulin] |  |  |  | no increase in survival | decrease (or increase at low dose) in lung metastasis | 
3 |  |  |  | CC(=O)O[C@H]1C(=O)[C@@]2(C)[C@H]([C@H](OC(=O)c3ccccc3)[C@]3(O)C[C@H](OC(=O)[C@H](O)[C@@H](NC(=O)c4ccccc4)c4ccccc4)C(C)=C1C3(C)C)[C@]1(OC(C)=O)CO[C@@H]1C[C@@H]2O [paclitaxel, reference compound] | did not decrease TIE2-expressing cell accumulation | did not decrease macrophage accumulation | tumor growth inhibition |  |  | decrease in lung metastasis

Source: US9457019B2, “Methods for inhibiting tie-2 kinase useful in the treatment of cancer” (Deciphera Pharmaceuticals, LLC, priority 2013, dated 2016)
